Legend:
Type in all cases: cell-based
PKA = assay: Kinase translocation reporter imaging, PKA KTR-Clover, in NIH/3T3 cells
Source text: (§1) The constructs of JNKKTRrsGreenFast-E (JNKKTR is SEQ ID NO: 5), P38KTRDronpa, ERKKTRrsFastLime (ERKKTR is SEQ ID NO: 6) were built based on the original KTRs constructs JNKKTRClover (addgene plasmid 59151; JNKKTR is SEQ ID NO: 5), P38KTRmCerulean3 (addgene plasmid 59155), ERKKTRClover(addgene plasmid 59150; ERKKTR is SEQ ID NO: 6), all gift of Markus W. Covert (Regot S, et al., Cell, (2014); 157(7):1724-34). The newly developed three KTRs were then used along with PKAKTRClover (addgene plasmid […]; PKAKTR is SEQ ID NO: 7) and H2B-TagBFP to report the activities of all four kinases. H2B-TagBFP was used as a nucleus marker. NIH/3T3 cells were imaged on the same microscope and incubator system as the imaging of cell cycle phases. Cell culture media were changed to imaging media (MEM (Gibo) without phenol red with 1% FBS (Gibo)) prior to imaging. The imaging conditions (including exposure time, excitation, and emission) for KTRs were the same as those for imaging cell cycle phases as described previously. […]
(§2) Quantification of KTRs: Kinase activities reported by KTRs including CDK2 reporter and CDK4/6 reporter were quantified following the methods described previously (Regot S, et al., Cell, (2014); 157(7):1724-34). […]

JNK = assay: Kinase translocation reporter imaging, rsGreenF-E-based JNK sensor, in NIH/3T3 cells
Source text: as §1, §2

ERK = assay: Kinase translocation reporter imaging, rsFastLime-based ERK sensor, in NIH/3T3 cells
Source text: as §1, §2

P38 = assay: Kinase translocation reporter imaging, Dronpa-based P38 sensor, in NIH/3T3 cells
Source text: as §1, §2

Ca^2+ = assay: Ca2+ imaging with NIR-GECO2G in NIH/3T3 cells (seven-signal imaging); details: 100 ng/ml PMA added at t=44 min (after forskolin)
Source text: (§3) Simultaneous imaging of seven cell activities within single cells: The genes of the single-color KTRs were cloned into the following plasmid: CAG-JNKKTRrsGreenF-E-P2A-ERK KTRrsFastLime-IRES-PKAKTRClover-P2A-P38KTRDropna (JNKKTR is SEQ ID NO: 5 and PKAKTR is SEQ ID NO: 7). The aforementioned plasmid was then used with plasmid CAG-NIR-GECO2G (Qian Y, et al., PLoS Biol., (2020); 18(11):e3000965), plasmid CMV-Pink Flamindo (Harada K, et al., Sci Rep., (2017); 7(1):7351), and plasmid CMV-BlueCKAR (Mehta S, et al., Nat Cell Biol, (2018); 20(10):1215-25) for imaging 7 signals within individual NIH/3T3 cells. Imaging conditions for blue channel, green channel, and red channel were the same as those used in the imaging of cell cycle phases and CDKs activities. An extra channel (excitation: 637/12 nm at 9 mW/mm^2; emission: 664LP, exposure time: 100 ms) was used for imaging NIR-GECO2G. Images and movies were acquired every 2 min. 50 μM forskolin (Millipore Sigma) and 100 ng/ml Phorbol 12-myristate 13-acetate (PMA) (Millipore Sigma) were used to stimulate cells.

cAMP = cAMP imaging with Pink Flamindo in NIH/3T3 cells (seven-signal imaging); details: 100 ng/ml PMA added at t=44 min (after forskolin)
Source text: as §3

PKC = PKC imaging with BlueCKAR in NIH/3T3 cells (seven-signal imaging); details: 100 ng/ml PMA added at t=44 min (after forskolin)
Source text: as §3

[1] = seven-signal imaging, 100 ng/ml PMA added at t=44 min (after forskolin)
[2] = four-KTR imaging, 20 ng/ml bFGF2 at t=0 min

Molecule | PKA response (PKA; [1]) | JNK response (JNK; [1]) | ERK response (ERK; [1]) | P38 response (P38; [1]) | Ca^2+ response (Ca^2+) | cAMP response (cAMP) | PKC response (PKC) | PKA KTR signal after stimulation (PKA; [2]) | JNK KTR signal after stimulation (JNK; [2]) | ERK KTR signal after stimulation (ERK; [2]) | P38 KTR signal after stimulation (P38; [2])
CCCCCCCCCCCCCC(=O)O[C@@H]1[C@@H](C)[C@@]2(O)[C@@H](C=C(CO)C[C@]3(O)C(=O)C(C)=C[C@@H]23)[C@@H]2C(C)(C)[C@]12OC(C)=O [PMA, phorbol 12-myristate 13-acetate] | strong responses | strong responses | strong responses | little to no changes | little to no changes | strong responses | strong responses | – | – | – | –
bFGF2: mouse basic fibroblast growth factor 2 (protein, UniProt P15655 10-154, looked up) Fibroblast growth factor 2: PALPEDGGAAFPPGHFKDPKRLYCKNGGFFLRIHPDGRVDGVREKSDPHVKLQLQAEERGVVSIKGVCANRYLAMKEDGRLLASKCVTEECFFFERLESNNYNTYRSRKYSSWYVALKRTGQYKLGSKTGPGQKAILFLPMSAKS | – | – | – | – | – | – | – | Fast onset | Fast onset | steadily increased over time | steadily increased over time

From patent US20240287627A1, “TEMPORALLY MULTIPLEXED IMAGING” (MASSACHUSETTS INSTITUTE OF TECHNOLOGY, priority 2023, published 2024)
